Measured values from ChEMBL document CHEMBL6182926, “Design, Synthesis, and Biological Activity Evaluation of Deuterated Diphenyl Azole Alcohol-Based CYP51 Inhibitors” (J Med Chem, 2025).
≈ marks a conversion by molar mass, not a printed value.

Experiments:
Cryptococcus neoformans [1] = assay: Antifungal activity against Cryptococcus neoformans CGMCC 2.3161 assessed as reduction in 14alpha-methylsterols at 0.0125 ug/ml measured after 18 hrs incubation by gas chromatography-mass spectrometry (GCMS) analysis (reference value: 2.32%); type: functional; set-up: scale not given: the % may be the effect or the level left; details: dose 0.0125 µg/ml
Cytochrome P450 2C19 = Cytochrome P450 2C19 (Homo sapiens, UniProt P33261); assay: Inhibition of CYP2C19 in human liver microsomes using S-mephenytoin as substrate measured after 10 mins by LC/MS/MS analysis; type: ADME, Microsome
Chain of Cytochrome P450 2C19 (P33261 whole entry): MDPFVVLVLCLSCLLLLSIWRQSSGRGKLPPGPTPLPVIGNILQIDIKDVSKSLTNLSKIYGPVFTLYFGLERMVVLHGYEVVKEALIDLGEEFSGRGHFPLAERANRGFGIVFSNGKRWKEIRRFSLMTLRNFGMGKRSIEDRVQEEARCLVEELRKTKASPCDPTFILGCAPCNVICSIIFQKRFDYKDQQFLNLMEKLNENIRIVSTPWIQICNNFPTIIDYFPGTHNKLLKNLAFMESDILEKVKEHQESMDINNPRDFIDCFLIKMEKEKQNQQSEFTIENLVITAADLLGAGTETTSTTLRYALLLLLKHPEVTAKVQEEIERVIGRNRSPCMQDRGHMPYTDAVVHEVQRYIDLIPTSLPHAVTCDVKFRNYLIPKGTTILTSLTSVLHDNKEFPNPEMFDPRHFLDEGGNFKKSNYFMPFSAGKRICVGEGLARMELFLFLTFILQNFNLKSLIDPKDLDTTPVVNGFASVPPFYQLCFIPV

[2] = Cmax in Sprague-Dawley rat at 3 mg/kg, iv by LC-MS/MS analysis; type: ADME, organism-based; details: in vivo
Cryptococcus neoformans [3] = assay: Fungicidal activity against Cryptococcus neoformans CGMCC 2.3161 assessed as concentration of colonies (< 5) measured after 48 hrs incubation; type: functional
Cryptococcus neoformans [4] = assay: Antifungal activity against Cryptococcus neoformans CGMCC 2.3161 assessed as reduction in other sterol at 0.125 ug/ml measured after 18 hrs incubation by gas chromatography-mass spectrometry (GCMS) analysis (reference value: 2.20%); type: functional; set-up: scale not given: the % may be the effect or the level left; details: dose 0.125 µg/ml
[5] = (§1) Selectivity ratio, ratio of IC50 for cytotoxicity against human SH-SY5Y cells to MIC80 for antifungal activity against Candida albicans SC 5314; type: toxicity, cell-based
Candida parapsilosis = assay: Antifungal activity against Candida parapsilosis GIM 2.190 assessed as inhibition of visible growth; type: functional; details: Lodderomyces parapsilosis
[6] = Subacute toxicity in ICR mouse assessed as change in body weight at 100 mg/kg, oral gavage for 14 consecutive days; type: organism-based; details: in vivo, 336 h, time 14 day
Pichia kudriavzevii [7] = assay: Antifungal activity against Candida krusei AS 2.1045 assessed as inhibition of visible growth; type: functional
Cryptococcus neoformans [8] = assay: Antifungal activity against Cryptococcus neoformans CGMCC 2.3161 assessed as reduction in Lanosterol at 0.0125 ug/ml measured after 18 hrs incubation by gas chromatography-mass spectrometry (GCMS) analysis; type: functional; set-up: scale not given: the % may be the effect or the level left; details: dose 0.0125 µg/ml
Pichia kudriavzevii [9] = assay: Fungicidal activity against Candida krusei AS 2.1045 assessed as concentration of colonies (< 5) measured after 48 hrs incubation; type: functional
Candida albicans [10] = assay: Antifungal activity against Candida albicans SC 5314 assessed as inhibition of visible growth; type: functional
Cryptococcus neoformans [11] = assay: Antifungal activity against Cryptococcus neoformans CGMCC 2.3161 assessed as reduction in ergosterol at 0.125 ug/ml measured after 18 hrs incubation by gas chromatography-mass spectrometry (GCMS) analysis (reference value: 94.48%); type: functional; set-up: scale not given: the % may be the effect or the level left; details: dose 0.125 µg/ml
Cytochrome P450 2D6 = Cytochrome P450 2D6 (Homo sapiens, UniProt P10635); assay: Inhibition of CYP2D6 in human liver microsomes using dextromethorphan as substrate measured after 10 mins by LC/MS/MS analysis; type: ADME, Microsome
Chain of Cytochrome P450 2D6 (P10635 whole entry): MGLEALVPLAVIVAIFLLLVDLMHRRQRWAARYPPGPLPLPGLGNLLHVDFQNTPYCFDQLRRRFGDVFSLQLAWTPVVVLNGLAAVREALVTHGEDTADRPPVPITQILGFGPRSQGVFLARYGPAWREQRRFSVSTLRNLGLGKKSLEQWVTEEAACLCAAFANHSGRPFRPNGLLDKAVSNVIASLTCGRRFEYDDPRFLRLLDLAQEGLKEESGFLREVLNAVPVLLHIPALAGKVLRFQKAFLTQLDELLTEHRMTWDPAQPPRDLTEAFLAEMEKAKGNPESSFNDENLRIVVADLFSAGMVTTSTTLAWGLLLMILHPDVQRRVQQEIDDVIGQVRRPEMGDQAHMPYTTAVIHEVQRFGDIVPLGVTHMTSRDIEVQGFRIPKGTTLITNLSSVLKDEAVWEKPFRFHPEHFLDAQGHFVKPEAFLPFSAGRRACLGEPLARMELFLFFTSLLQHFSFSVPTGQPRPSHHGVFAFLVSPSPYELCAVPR

[12] = Selectivity ratio, ratio of IC50 for cytotoxicity against human SH-SY5Y cells to MIC80 for antifungal activity against Clinical isolate Candida glabrata; type: toxicity, cell-based
Cryptococcus neoformans [13] = assay: Antifungal activity against Cryptococcus neoformans CGMCC 2.3161 assessed as reduction in Eburicol at 0.125 ug/ml measured after 18 hrs incubation by gas chromatography-mass spectrometry (GCMS) analysis; type: functional; set-up: scale not given: the % may be the effect or the level left; details: dose 0.125 µg/ml
[14] = Tmax in Sprague-Dawley rat at 10 mg/kg, po by LC-MS/MS analysis; type: ADME, organism-based; details: in vivo
Cytochrome P450 1A2 = target: T1, Cytochrome P450 1A2 (Homo sapiens, UniProt P05177); assay: Inhibition of CYP1A2 in human liver microsomes using phenacetin as substrate measured after 10 mins by LC/MS/MS analysis; type: ADME, Microsome
T1 sequence (P05177 whole entry): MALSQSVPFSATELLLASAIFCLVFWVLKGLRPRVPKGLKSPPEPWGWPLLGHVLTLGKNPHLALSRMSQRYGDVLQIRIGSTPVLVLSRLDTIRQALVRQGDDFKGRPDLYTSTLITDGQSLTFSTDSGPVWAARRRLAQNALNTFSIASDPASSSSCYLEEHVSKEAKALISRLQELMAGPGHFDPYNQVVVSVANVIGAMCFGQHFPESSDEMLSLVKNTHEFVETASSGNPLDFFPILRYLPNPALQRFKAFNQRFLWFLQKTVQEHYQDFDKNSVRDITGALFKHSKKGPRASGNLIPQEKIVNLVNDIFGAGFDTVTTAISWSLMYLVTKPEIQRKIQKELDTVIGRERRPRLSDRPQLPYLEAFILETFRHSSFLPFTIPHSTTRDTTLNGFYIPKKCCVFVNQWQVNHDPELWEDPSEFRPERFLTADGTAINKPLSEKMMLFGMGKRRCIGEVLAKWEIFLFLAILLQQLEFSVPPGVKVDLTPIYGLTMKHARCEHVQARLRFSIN

Nakaseomyces glabratus = assay: Inhibition of biofilm formation in clinical isolate Candida glabrata assessed as inhibition of metabolic activity of biofilm measured after 24 hrs by XTT assay; type: functional
Cytochrome P450 3A4 = Cytochrome P450 3A4 (Homo sapiens, UniProt P08684); assay: Inhibition of CYP3A4 in human liver microsomes using testosterone as substrate measured after 10 mins by LC/MS/MS analysis; type: ADME, Microsome
Chain of Cytochrome P450 3A4 (P08684 whole entry): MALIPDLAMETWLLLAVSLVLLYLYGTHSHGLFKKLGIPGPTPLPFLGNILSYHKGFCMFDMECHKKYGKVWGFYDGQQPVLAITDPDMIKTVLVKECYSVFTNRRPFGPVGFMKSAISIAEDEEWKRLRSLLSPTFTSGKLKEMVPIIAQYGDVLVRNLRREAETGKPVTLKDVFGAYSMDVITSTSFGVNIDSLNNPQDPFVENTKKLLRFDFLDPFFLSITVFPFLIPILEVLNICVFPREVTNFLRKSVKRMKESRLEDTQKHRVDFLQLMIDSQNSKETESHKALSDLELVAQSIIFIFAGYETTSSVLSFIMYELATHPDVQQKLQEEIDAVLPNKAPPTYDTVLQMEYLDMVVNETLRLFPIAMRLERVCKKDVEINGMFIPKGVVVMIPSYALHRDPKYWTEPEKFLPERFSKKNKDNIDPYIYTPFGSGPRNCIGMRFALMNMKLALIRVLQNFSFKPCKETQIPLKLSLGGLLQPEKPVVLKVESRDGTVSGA

Aspergillus fumigatus = assay: Antifungal activity against Aspergillus fumigatus CGMCC 3.7795 assessed as inhibition of visible growth; type: functional
[15] = Selectivity ratio, ratio of IC50 for cytotoxicity against human SH-SY5Y cells to MIC80 for antifungal activity against Candida tropicalis CGMCC 2.3739; type: toxicity, cell-based
Cryptococcus neoformans [16] = assay: Inhibition of biofilm formation in Cryptococcus neoformans CGMCC 2.3161 assessed as inhibition of metabolic activity of biofilm measured after 24 hrs by XTT assay; type: functional
Candida albicans [17] = assay: Antifungal activity against Candida albicans SC5314 assessed as reduction in ergosterol at 0.05 ug/ml measured after 18 hrs incubation by gas chromatography-mass spectrometry (GCMS) analysis (reference value: 96.72%); type: functional; set-up: scale not given: the % may be the effect or the level left; details: dose 0.05 µg/ml
[18] = Toxicity in ICR mouse assessed as mortality at 500 mg/kg, po single dose measured for 7 days; type: organism-based; details: in vivo, 168 h, time 7 day
[19] = Cmax in Sprague-Dawley rat at 10 mg/kg, po by LC-MS/MS analysis; type: ADME, organism-based; details: in vivo
[20] = Metabolic stability in human liver microsomes assessed as half life by LC-MS/MS analysis; type: ADME, Microsome; details: liver microsomes
[21] = Half life in Sprague-Dawley rat at 10 mg/kg, po by LC-MS/MS analysis; type: ADME, organism-based; details: in vivo
Pichia kudriavzevii [22] = assay: Fungicidal index, ratio of MFC for fungicidal activity against Candida krusei AS 2.1045 to MIC80 for antifungal activity against Candida krusei AS 2.1045; type: functional
[23] = AUC (0 to infinity) in Sprague-Dawley rat at 10 mg/kg, po by LC-MS/MS analysis; type: ADME, organism-based; details: in vivo
[24] = Toxicity in ICR mouse assessed as change in body weight at 500 mg/kg, po single dose measured for 7 days; type: organism-based; details: in vivo, 168 h, time 7 day
[25] = as §1; type: toxicity, cell-based; remark: listed apart in the source
Cryptococcus neoformans [26] = assay: Antifungal activity against Cryptococcus neoformans CGMCC 2.3161 assessed as reduction in Obtusifoliol at 0.125 ug/ml measured after 18 hrs incubation by gas chromatography-mass spectrometry (GCMS) analysis; type: functional; set-up: scale not given: the % may be the effect or the level left; details: dose 0.125 µg/ml
Cryptococcus neoformans [27] = assay: Fungicidal index, ratio of MFC for fungicidal activity against Cryptococcus neoformans CGMCC 2.3161 to MIC80 for antifungal activity against Cryptococcus neoformans CGMCC 2.3161; type: functional

## [2H]C([2H])([2H])N(Cc1ccc(-c2ccc(OC(F)(F)F)cc2)cc1)[C@H](C)[C@](O)(Cn1cncn1)c1ccc(F)cc1F
Cryptococcus neoformans [1]
  Activity: 3.13%
Cytochrome P450 2C19
  IC50: 1710 nM
[2]
  Cmax: 2290 ng/mL
Cryptococcus neoformans [3]
  MFC: 0.062 µg/mL (≈ 0.116 µM)
Cryptococcus neoformans [4]
  Activity: 11.5%
[5]
  selectivity ratio: > 100
Candida parapsilosis
  MIC80: 6 ng/mL (≈ 0.0112 µM)
[6]
  Activity: Non-toxic
Pichia kudriavzevii [7]
  MIC80: 0.012 µg/mL (≈ 0.0224 µM)
Cryptococcus neoformans [8]
  Activity: 8.58%
Pichia kudriavzevii [9]
  MFC: 0.125 µg/mL (≈ 0.233 µM)
Candida albicans [10]
  MIC80: 6 ng/mL (≈ 0.0112 µM)
Cryptococcus neoformans [11]
  Activity: 5.68%
Cytochrome P450 2D6
  IC50: > 10 µM
[12]
  selectivity ratio: > 100
Cryptococcus neoformans [13]
  Activity: 47.42%
[14]
  Tmax: 2.67 h
Cytochrome P450 1A2
  IC50: > 10 µM
Nakaseomyces glabratus
  MIC50: 0.062 µg/mL (≈ 0.116 µM)
Cytochrome P450 3A4
  IC50: 5.11 µM
Aspergillus fumigatus
  MIC80: 0.025 µg/mL (≈ 0.0467 µM)
[15]
  selectivity ratio: > 100
Cryptococcus neoformans [16]
  MIC50: 16 µg/mL (≈ 29.9 µM)
Candida albicans [17]
  Activity: 3.68%
[18]
  Activity: Non-toxic
[19]
  Cmax: 601 ng/mL
[20]
  half-life: 40.2 min
[21]
  half-life: 265 min
Pichia kudriavzevii [22]
  Activity_index: 10
[23]
  AUC(0-inf): 4830 ng·h/mL
[24]
  Activity: Non-toxic
[25]
  selectivity ratio: > 100
Cryptococcus neoformans [26]
  Activity: 26.05%
Cryptococcus neoformans [27]
  Activity_index: 5
